# Experimental data reported in patent US20180311357A1, “EXTERNAL PREPARATION AND METHOD FOR PRODUCING SAME” (SEKISUI CHEMICAL CO., LTD., priority 2015, published 2018).
# Details: pH 7
# Protocol: In the present invention, the octanol/water partition coefficient is obtained as follows. After the chemical is added into a flask containing octanol and an aqueous buffer at pH 7, the mixture is shaken. Based on the chemical concentration in each phase, the octanol/water partition coefficient is calculated by the following equation. Octanol/water partition coefficient=Log 10(concentration in octanol phase/concentration in aqueous phase)
compound,measurement,value
O.O.O.O.O.O=P([O-])(O)C(O)(Cc1cccnc1)P(=O)(O)O.O=P([O-])(O)C(O)(Cc1cccnc1)P(=O)(O)O.[Na+].[Na+] [hemipenta hydrate risedronate monosodium],octanol/water partition coefficient,−5.0
